Article PMC10301092, “New Insights into the Opioid Analgesic Profile of cis-(−)-N-Normetazocine-derived Ligands” (Molecules, 2023)
Values joined by “and” are separate entries in the source; they are usually repeats but may differ in a detail not shown here. Equal entries are not always repeated. Where two headings read alike, the source gives them in different places.

Tests used:
sigma-1 receptor (σ1R) [1] = target: T1, sigma-1 receptor (σ1R) (Homo sapiens, UniProt Q99720); assay: σ1R radioligand binding assay
Procedure: (§1) The radioligand binding assays and the data analysis were performed as previously reported [24].

μ opioid receptor (MOR) [2] = target: T2, μ opioid receptor (MOR) (Homo sapiens, UniProt P35372); assay: MOR radioligand binding assay
δ opioid receptor (DOR) = δ opioid receptor (DOR) (Homo sapiens, UniProt P41143); assay: DOR radioligand binding assay
κ opioid receptor (KOR) [3] = target: T3, κ opioid receptor (KOR) (Homo sapiens, UniProt P41145); assay: KOR radioligand binding assay
sigma-2 receptor (σ2R) [4] = target: T4, sigma-2 receptor (σ2R) (Homo sapiens, UniProt Q5BJF2); assay: σ2R radioligand binding assay
Procedure: as §1

MOR = target: T5, MOR (Mus musculus, UniProt P42866); assay: MVD assay, Ke with naloxone / against DAMGO (MOR); format: cell-based; conditions: for functional profile at MOR: MVD, result in words; for Ke ± SEM (nM) Naloxone (MOR): Ke of naloxone against the listed agonist in isolated MVD, single-dose method, n = 5–9
T5 construct: vasa deferentia were removed from the mice; from tissue; host or cells: vas deferens of male NMRI mice
Procedure: (§2) Isolated mouse vas deferens. The preparation of MVD was carried out as previously described by Hughes et al. [25] with minor modifications. Briefly, vasa deferentia were removed from the mice and unsheathed from the surrounding fat, connective tissue, and blood vessels. […] The upper end of the isolated organ was attached to a transducer using a thread and connected to a computer via an amplifier (PowerLab 4/20, ADInstruments, Castle Hill, NSW, Australia). The resting tension was adjusted to 0.1 g. Electrical field stimulation was applied through trains of 10 Hz with 10 rectangular impulses at a 1 ms pulse width, 9 V/cm (i.e., supramaximal intensity), repeated with 0.1 Hz (Stimulator 88, Grass Medical Instruments, Quincy, MA, USA).
(§3) Data analysis. The efficacy of each test compound to inhibit electrically evoked contraction was measured as the percentage change from baseline. […] Data are presented as the mean ± SEM. Ke values were calculated using dose ratio and the single-dose method [26]. Statistical analysis was performed with one-way ANOVA, followed by the Newman–Keuls post hoc test.

mouse vas deferens (MVD) = assay: Isolated mouse vas deferens (MVD): inhibition of electrically evoked contractions; format: cell-based; conditions: for IC50: 50% inhibitory concentration on electrically evoked contractions of isolated MVD, n = 5–9
Procedure: Animals. Male NMRI mice (Toxicoop Zrt., Budapest, Hungary) weighing 35–45 g were kept in groups in a temperature- and humidity-controlled room under a 12 h light/dark cycle and with food and water available ad libitum. Each animal was used for one experiment.
Isolated mouse vas deferens. The preparation of MVD was carried out as previously described by Hughes et al. with minor modifications. Briefly, vasa deferentia were removed from the mice and unsheathed from the surrounding fat, connective tissue, and blood vessels. They were then suspended between an upper (ring) and a lower (straight) electrode positioned at 5.5 cm, in 5 mL organ baths containing Krebs solution (concentrations in mM: NaCl, 118.0; NaHCO3, 25.0; KCl, 4.7; KH2PO4, 1.2; glucose, 11.0; CaCl2, 2.5; and MgSO4, 1.2) aerated with a gas mixture of 95% O2 and 5% CO2 and at a constant temperature of 36 °C. The upper end of the isolated organ was attached to a transducer using a thread and connected to a computer via an amplifier (PowerLab 4/20, ADInstruments, Castle Hill, NSW, Australia). The resting tension was adjusted to 0.1 g. Electrical field stimulation was applied through trains of 10 Hz with 10 rectangular impulses at a 1 ms pulse width, 9 V/cm (i.e., supramaximal intensity), repeated with 0.1 Hz (Stimulator 88, Grass Medical Instruments, Quincy, MA, USA).
Experimental paradigms. The experimental design of MVD required a 50 min equilibration period under electrical field stimulation, during which Krebs solution was changed every 5 min. After the equilibration period, test compounds were added cumulatively, allowing a minimum of 2 min between doses. To determine the test compounds’ dissociation constant, Ke, vasa deferentia were preincubated with the antagonist naloxone, and without washing a single concentration of the agonist test, the compound was added.
Data analysis. The efficacy of each test compound to inhibit electrically evoked contraction was measured as the percentage change from baseline. […] Data are presented as the mean ± SEM. Ke values were calculated using dose ratio and the single-dose method. […]

KOR = target: T6, KOR (Mus musculus, UniProt P33534); assay: MVD assay, Ke with nor-BNI (KOR); format: cell-based; conditions: Ke of nor-BNI against the listed agonist in isolated MVD; n = 5–9
T6 construct: vasa deferentia were removed from the mice; from tissue; host or cells: vas deferens of male NMRI mice
Procedure: as §2, §3

Male Swiss CD1 mice = assay: Thermal acute pain model (radiant heat tail-flick test); format: in vivo, mouse
Procedure: Thermal acute pain model (tail-flick test). Male Swiss CD1 mice (Envigo Laboratories, S. Pietro al Natisone (UD)) weighing 25–30 g were housed at six per cage, kept at a constant room temperature (25 ± 1 °C), under a 12:12 h light-and-dark cycle with food and water ad libitum. Each mouse was used for only one experiment. […] The radiant heat tail-flick test consists of irradiation of the lower third of the tail with an infrared source (Ugo Basile, Comerio, Italy). The day before the experiment, performed at room temperature (25 ± 1 °C), mice were habituated to the procedure for measuring the nociception threshold. The basal predrug latency was established between 3 and 6 s and was calculated as the average of the first three measurements, which were performed at 5 min intervals. A cutoff latency of 15 s was established to minimize damage to the tail. All tested compounds were dissolved in pyrogen-free isotonic saline (Baxter Healthcare, Deerfield, IL, USA) and DMSO (5%) and were administered to mice i.p. Post-treatment tail-flick latencies (TFLs) were determined at 15, 30, 45, 60, and 90 min after i.p. injection.

Male Wistar rats = assay: Inflammatory pain model (CFA-evoked hyperalgesia, Randall–Selitto paw pressure threshold); format: in vivo, rat; conditions: s.c.
Procedure: Inflammatory pain model (CFA-evoked hyperalgesia). Male Wistar rats (190–250 g) (Toxicoop Zrt., Budapest, Hungary) under brief isoflurane (Willy Rüsch GmbH, Böblingen, Germany) anesthesia received i.pl. injection of 0.15 mL complete Freund’s adjuvant (CFA) (source), a water-in-oil emulsion of killed mycobacterium, into the right hind paw. The experimental procedures were performed as described previously.
Experimental paradigms of CFA-evoked hyperalgesia. The measurement of the effect of the test compound was carried out 4 days following i.pl. CFA injection as described previously. Briefly, the baseline (pretest compound) of the paw pressure threshold (PPT) of both inflamed and noninflamed paws was determined. Next, the drug or vehicle was s.c. administered at a volume of 5 mL/kg body weight. Then, the response threshold to mechanical pressure stimulation of inflamed and noninflamed paws was given as paw pressure thresholds (PPTs) and measured at 30 and 60 min post administration using an arbitrary cutoff weight of twice the baseline.

DOR = target: T7, DOR (Mus musculus, UniProt P32300); assay: MVD assay, Ke with naltrindole (DOR); format: cell-based; conditions: Ke of naltrindole against the listed agonist in isolated MVD; n = 5–9
T7 construct: vasa deferentia were removed from the mice; from tissue; host or cells: vas deferens of male NMRI mice
Procedure: as §2
Experimental paradigms. The experimental design of MVD required a 50 min equilibration period under electrical field stimulation, during which Krebs solution was changed every 5 min. […]
Data analysis. The efficacy of each test compound to inhibit electrically evoked contraction was measured as the percentage change from baseline. […] Ke values were calculated using dose ratio and the single-dose method [26]. […]

κ opioid receptor (KOR) [5] = target: T3, κ opioid receptor (KOR); conditions: read-out: Ki (nM) ± SD KOR; cited from earlier work
sigma-1 receptor (σ1R) [6] = target: T1, sigma-1 receptor (σ1R); conditions: read-out: Ki (nM) ± SD σ1R; cited from earlier work
sigma-2 receptor (σ2R) [7] = target: T4, sigma-2 receptor (σ2R); conditions: read-out: Ki (nM) ± SD σ2R; cited from earlier work
μ opioid receptor (MOR) [8] = target: T2, μ opioid receptor (MOR); conditions: read-out: Ki (nM) ± SD MOR; cited from earlier work
[9] = mean ± SD of at least two experiments in duplicate, read-out: Ki (nM) ± SD MOR
[10] = mean ± SD of at least two experiments in duplicate, read-out: Ki (nM) ± SD DOR
[11] = mean ± SD of at least two experiments in duplicate, read-out: Ki (nM) ± SD KOR

T3 sequence (P41145 whole entry): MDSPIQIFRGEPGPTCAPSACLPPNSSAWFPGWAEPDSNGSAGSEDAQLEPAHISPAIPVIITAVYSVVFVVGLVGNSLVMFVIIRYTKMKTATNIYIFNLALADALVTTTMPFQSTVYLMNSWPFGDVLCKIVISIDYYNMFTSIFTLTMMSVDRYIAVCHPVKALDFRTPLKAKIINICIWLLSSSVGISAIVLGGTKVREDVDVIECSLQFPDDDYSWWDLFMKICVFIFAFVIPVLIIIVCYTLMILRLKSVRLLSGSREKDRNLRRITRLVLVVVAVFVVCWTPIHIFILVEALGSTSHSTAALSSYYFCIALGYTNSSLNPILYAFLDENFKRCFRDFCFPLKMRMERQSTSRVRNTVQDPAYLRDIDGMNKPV
T6 sequence (P33534 whole entry): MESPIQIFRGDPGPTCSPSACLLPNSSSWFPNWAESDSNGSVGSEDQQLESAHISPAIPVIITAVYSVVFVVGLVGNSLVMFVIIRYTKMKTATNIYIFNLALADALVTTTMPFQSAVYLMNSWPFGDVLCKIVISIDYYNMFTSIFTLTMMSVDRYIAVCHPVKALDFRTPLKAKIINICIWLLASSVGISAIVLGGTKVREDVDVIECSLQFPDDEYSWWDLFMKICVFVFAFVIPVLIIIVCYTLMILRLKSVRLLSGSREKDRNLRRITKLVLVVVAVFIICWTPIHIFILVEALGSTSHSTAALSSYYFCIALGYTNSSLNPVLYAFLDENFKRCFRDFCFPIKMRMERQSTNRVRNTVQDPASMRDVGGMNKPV
T5 sequence (P42866 whole entry): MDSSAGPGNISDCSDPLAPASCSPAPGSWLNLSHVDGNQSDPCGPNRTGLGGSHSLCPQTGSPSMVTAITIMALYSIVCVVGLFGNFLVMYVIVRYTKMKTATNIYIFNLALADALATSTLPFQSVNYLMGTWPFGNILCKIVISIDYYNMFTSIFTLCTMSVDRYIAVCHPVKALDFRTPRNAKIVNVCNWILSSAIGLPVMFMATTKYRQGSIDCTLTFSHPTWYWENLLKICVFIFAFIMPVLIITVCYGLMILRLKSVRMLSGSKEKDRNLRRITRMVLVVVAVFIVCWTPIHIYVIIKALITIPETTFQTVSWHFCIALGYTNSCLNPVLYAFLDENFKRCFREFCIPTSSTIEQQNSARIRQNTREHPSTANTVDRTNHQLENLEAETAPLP
T1 sequence (Q99720 whole entry, species assumed): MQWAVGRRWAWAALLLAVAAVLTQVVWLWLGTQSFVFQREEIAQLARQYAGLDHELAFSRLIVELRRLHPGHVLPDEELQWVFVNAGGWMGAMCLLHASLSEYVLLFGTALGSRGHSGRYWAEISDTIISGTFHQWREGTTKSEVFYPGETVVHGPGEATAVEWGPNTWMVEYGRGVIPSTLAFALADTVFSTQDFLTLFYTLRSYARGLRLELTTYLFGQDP
Chain of δ opioid receptor (DOR) (P41143 whole entry): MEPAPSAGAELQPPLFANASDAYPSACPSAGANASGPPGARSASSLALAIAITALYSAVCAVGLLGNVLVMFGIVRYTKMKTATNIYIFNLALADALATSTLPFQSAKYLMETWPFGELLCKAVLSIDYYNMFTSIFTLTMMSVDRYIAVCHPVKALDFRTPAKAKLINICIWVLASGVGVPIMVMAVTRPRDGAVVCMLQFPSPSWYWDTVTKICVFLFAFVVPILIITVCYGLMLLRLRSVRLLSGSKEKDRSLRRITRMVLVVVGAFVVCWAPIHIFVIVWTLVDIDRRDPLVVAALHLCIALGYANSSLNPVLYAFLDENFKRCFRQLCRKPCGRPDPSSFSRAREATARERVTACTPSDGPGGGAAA
T2 sequence (P35372 whole entry, species assumed): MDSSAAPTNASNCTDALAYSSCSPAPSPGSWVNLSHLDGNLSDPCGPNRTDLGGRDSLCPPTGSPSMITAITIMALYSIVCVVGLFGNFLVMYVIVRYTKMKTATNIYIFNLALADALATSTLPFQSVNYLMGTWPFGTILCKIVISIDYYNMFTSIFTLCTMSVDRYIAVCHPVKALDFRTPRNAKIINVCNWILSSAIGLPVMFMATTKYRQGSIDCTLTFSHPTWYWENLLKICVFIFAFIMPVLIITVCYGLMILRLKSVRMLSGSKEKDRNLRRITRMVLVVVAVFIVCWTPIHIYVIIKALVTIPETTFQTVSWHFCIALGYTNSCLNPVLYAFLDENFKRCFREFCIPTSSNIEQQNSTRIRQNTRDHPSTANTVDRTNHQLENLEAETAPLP
T4 sequence (Q5BJF2 whole entry): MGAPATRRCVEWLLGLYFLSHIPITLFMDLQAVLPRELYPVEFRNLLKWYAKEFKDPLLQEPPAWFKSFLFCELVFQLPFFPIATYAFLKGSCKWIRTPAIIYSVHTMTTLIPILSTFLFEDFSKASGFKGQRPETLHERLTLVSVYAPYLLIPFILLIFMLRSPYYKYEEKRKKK
T7 sequence (P32300 whole entry): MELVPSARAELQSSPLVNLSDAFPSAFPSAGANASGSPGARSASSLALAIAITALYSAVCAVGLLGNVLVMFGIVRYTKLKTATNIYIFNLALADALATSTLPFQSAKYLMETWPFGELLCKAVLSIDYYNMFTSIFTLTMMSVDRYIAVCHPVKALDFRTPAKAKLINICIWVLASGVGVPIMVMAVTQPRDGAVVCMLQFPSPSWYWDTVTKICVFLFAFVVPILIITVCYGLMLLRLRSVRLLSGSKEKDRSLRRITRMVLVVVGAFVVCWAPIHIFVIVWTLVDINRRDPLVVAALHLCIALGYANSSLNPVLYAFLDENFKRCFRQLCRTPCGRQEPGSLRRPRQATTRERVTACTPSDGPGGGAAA

CN1CCN(CCc2ccc(Cl)c(Cl)c2)CC1 [BD-1063, reference compound]
Ki (sigma-1 receptor (σ1R) [1]; mean ± SD of at least two experiments in duplicate, read-out: Ki (nM) ± SD σ1R): 14 ± 2.7 nM

C[C@H]1[C@H]2Cc3ccc(O)cc3[C@]1(C)CCN2CCC(=O)Nc1ccccc1N [Compound 3, N-(2-aminophenyl)-3-((2R,6R,11R)-8-hydroxy-6,11-dimethyl-1,4,5,6-tetrahydro-2,6-methanobenzo[d]azocin-3(2H)-yl)propanamide]
Ki (μ opioid receptor (MOR) [2]): 5.96 ± 0.08 nM
Ki (δ opioid receptor (DOR)): 155 ± 1.5 nM
Ki (κ opioid receptor (KOR) [3]): 93 ± 0.63 nM
Ki (sigma-1 receptor (σ1R) [1]): > 10000 nM
Ki (sigma-2 receptor (σ2R) [4]): > 10000 nM
functional profile at MOR (MOR): antagonist

C[C@@H]1[C@@H]2Cc3ccc(O)cc3[C@@]1(C)CCN2CCC(=O)Nc1ccccc1N [Compound 4, N-(2-aminophenyl)-3-((2S,6S,11S)-8-hydroxy-6,11-dimethyl-1,4,5,6-tetrahydro-2,6-methanobenzo[d]azocin-3(2H)-yl)propanamide]
Ki (μ opioid receptor (MOR) [2]): 408 ± 11 nM
Ki (δ opioid receptor (DOR)): 3120 ± 73 nM
Ki (κ opioid receptor (KOR) [3]): 154 ± 6 nM
Ki (sigma-1 receptor (σ1R) [1]): 729 ± 168 nM
Ki (sigma-2 receptor (σ2R) [4]): > 10000 nM

C[C@H]1[C@H]2Cc3ccc(O)cc3[C@]1(C)CCN2CCCC(=O)Nc1ccccc1N [Compound 5, N-(2-aminophenyl)-4-((2R,6R,11R)-8-hydroxy-6,11-dimethyl-1,4,5,6tetrahydro-2,6-methanobenzo[d]azocin-3(2H)-yl)butanamide]
Ki (μ opioid receptor (MOR) [2]; [9]): 479 ± 10 nM
Ki (δ opioid receptor (DOR); [10]): 1030 ± 16 nM
Ki (κ opioid receptor (KOR) [3]; [11]): 970 ± 21 nM
Ki (sigma-1 receptor (σ1R) [1]): > 10000 nM
Ki (sigma-2 receptor (σ2R) [4]): > 10000 nM

C[C@@H]1[C@@H]2Cc3ccc(O)cc3[C@@]1(C)CCN2CCCC(=O)Nc1ccccc1N [Compound 6, N-(2-aminophenyl)-4-((2S,6S,11S)-8-hydroxy-6,11-dimethyl-1,4,5,6tetrahydro-2,6-methanobenzo[d]azocin-3(2H)-yl)butanamide]
Ki (μ opioid receptor (MOR) [2]; [9]): 810 ± 15 nM
Ki (δ opioid receptor (DOR); [10]): 4190 ± 60 nM
Ki (κ opioid receptor (KOR) [3]; [11]): 2455 ± 11 nM
Ki (sigma-1 receptor (σ1R) [1]): 857 ± 212 nM
Ki (sigma-2 receptor (σ2R) [4]): > 10000 nM

C[C@H]1[C@H]2Cc3ccc(O)cc3[C@]1(C)CCN2CCC(=O)Nc1ccccn1 [Compound 7, 3-((2R,6R,11R)-8-hydroxy-6,11-dimethyl-1,4,5,6-tetrahydro-2,6-methanobenzo[d]azocin-3(2H)-yl)-N-(pyridin-2-yl)propanamide]
Ki (μ opioid receptor (MOR) [2]): 1.49 ± 0.24 nM
Ki (δ opioid receptor (DOR)): 138 ± 5 nM
Ki (κ opioid receptor (KOR) [3]): 64 ± 7 nM
Ki (sigma-1 receptor (σ1R) [1]): > 10000 nM
Ki (sigma-2 receptor (σ2R) [4]): > 10000 nM
IC50 (mouse vas deferens (MVD); Mus musculus): 66.88 ± 0.38 nM
effect on electrically evoked MVD smooth muscle contractions (mouse vas deferens (MVD); result in words): concentration-dependent inhibitory effect
Ke ± SEM (nM) Naloxone (MOR) (MOR): 2.42 ± 0.45 nM
functional profile at MOR (MOR): agonist
Ke ± SEM (nM) Nor-BNI (KOR) (KOR): 68.18 ± 15.98 nM
effect on mean tail-flick latency (Male Swiss CD1 mice; i.p., 3, 4, and 5 mg/kg, compared with vehicle group): increased the mean tail-flick latency
time of highest antinociceptive effect (Male Swiss CD1 mice; tail-flick, after i.p. injection): 45 min and 30 to 45 min
restoring hyperalgesia of inflamed paws (PPT) (Male Wistar rats; 5000 and 2500 µg/kg, at 30 and 60 min): effective
effect on noninflamed PPT (Male Wistar rats; in certain doses, compared with vehicle): significantly increase the noninflamed PPT
restoring hyperalgesia of inflamed paws (PPT) (Male Wistar rats; lower doses of the range 625–5000 µg/kg): tendency of antinociceptive effect

C[C@@H]1[C@@H]2Cc3ccc(O)cc3[C@@]1(C)CCN2CCC(=O)Nc1ccccn1 [Compound 8, 3-((2S,6S,11S)-8-hydroxy-6,11-dimethyl-1,4,5,6-tetrahydro-2,6-methanobenzo[d]azocin-3(2H)-yl)-N-(pyridin-2-yl)propanamide]
Ki (μ opioid receptor (MOR) [2]): 563 ± 23 nM
Ki (δ opioid receptor (DOR)): > 10000 nM
Ki (κ opioid receptor (KOR) [3]): 1380 ± 20 nM
Ki (sigma-1 receptor (σ1R) [1]): 2510 ± 737 nM
Ki (sigma-2 receptor (σ2R) [4]): > 10000 nM

CC1(C)SSC(C)(C)[C@@H](NC(=O)[C@@H](N)Cc2ccc(O)cc2)C(=O)NCC(=O)N[C@@H](Cc2ccccc2)C(=O)N[C@H]1C(=O)O [DPDPE]
Ke ± SEM (nM) Nor-BNI (KOR) (KOR): 2.57 ± 1.81 nM

CC[C@@]12CCN(CC3CC3)C(C(=O)c3ccc(O)cc31)[C@@H]2C [EKC, reference compound]
IC50 (mouse vas deferens (MVD)): 14.1 ± 0.69 nM
Ke ± SEM (nM) Naloxone (MOR) (MOR): 8.82 ± 0.52 nM
Ke ± SEM (nM) Naltrindole (DOR) (DOR): 11.47 ± 5.35 nM
Ke ± SEM (nM) Nor-BNI (KOR) (KOR): 1.76 ± 0.35 nM

C[C@H]1[C@H]2Cc3ccc(O)cc3[C@]1(C)CCN2CCC(=O)Nc1ccccc1 [LP1]
Ki Ratios DOR/MOR (μ opioid receptor (MOR) [2]; ratio of Ki DOR to Ki MOR): 35.1
Ki Ratios KOR/MOR (μ opioid receptor (MOR) [2]; ratio of Ki KOR to Ki MOR): 132.5
Ki (κ opioid receptor (KOR) [5]): 110 ± 6 nM
Ki (sigma-1 receptor (σ1R) [6]): 149 ± 4 nM
Ki (sigma-2 receptor (σ2R) [7]): 1680 nM

CCC(=O)N(CC)c1ccccc1 [N-ethyl-N-phenyl-propanamide]
Ki (μ opioid receptor (MOR) [8]): 136 nM

CCC(=O)N(C)c1ccccc1 [N-methyl-N-phenyl-propanamide]
Ki (μ opioid receptor (MOR) [8]): 65 nM
